Assay results from patent US11185527B2, “Methods and compositions relating to steroid hormone receptor-dependent cancers” (Wayne State University, priority 2017, dated 2021).
Several values for one entry are separate records, joined by “and”; a condition that tells them apart may be missing. Equal entries are not always repeated. Blank lines part the entries; values can stand above or below the compound they belong to.

How the values were obtained:
[1] = Metabolism in pooled human liver microsomes (HLM) with or without NADPH; format: in vitro ADME
Method: BD UltraPool human liver microsomes (HLM) 150 and the NAPDH regenerating system solution A and B were obtained from Corning Inc. Pooled HLM were used to determine percentage of metabolism of 5,3′-Dihydroxyflavone and 5,3-Dihydroxy-4′-methylflavone. The compounds (20 μM) were co-incubated with HLM (0.05 mg/ml) in the presence or absence of NAPDH for 30 minutes in a 37° C. water bath. At the end of the microsome reaction, the reaction was quenched with 1000 μl ethyl acetate. The mixture was vortexed and centrifuged at 13,000 rpm for 15 minutes, the supernatant was then subjected to high-performance liquid chromatography with tandem mass spectrometry ([…]) analysis.

22Rv1 cells = assay: Cell monolayer growth assay (MTT); format: cell-based, human; details: enzalutamide up to 20 uM
Method: Twenty four hours after plating the 22Rv1 cells, they were treated with the indicated concentrations of KCI807 (FIG. 4C) or with the indicated concentrations of enzalutamide (ENZ) (FIG. 4D).
Twenty four hours after plating the cells, they were treated with the indicated concentrations of the compound.
FIG. 16D is a graph showing the effect of 5′-Fluoro-5,3′-Dihydroxyflavone at various concentrations on growth of 22Rv1 cells.
Cells were trypsinized and 3000-4000 cells/well were seeded in 96-well plates coated with poly-D-lysine. The cells were seeded in phenol red-free medium supplemented with 10% FBS, 100 units/ml penicillin, 100 μg/ml streptomycin, 2 mM L-glutamine mixture and sodium pyruvate (1 mM) for LNCaP cells and phenol red-free medium supplemented with 10% FBS, 100 units/ml penicillin, 100 μg/ml streptomycin and 2 mM L-glutamine mixture for VCaP, 22Rv1, DU145, HeLa, HEK293 and H1650 cells. The cells were grown at 37° C. in 5% CO2. Twenty four hours after seeding in the 96-well plates, the cells were treated with the indicated concentration of KCI807 or DMSO (vehicle). The cells were re-treated on Day 3 by removing half the volume of medium and replacing it with fresh treated medium. Cell viability was determined using the MTT assay from day zero until day five. MTT (10 μL, 5 mg/mL) was added to each well and incubated for 2h at 37° C. The formazan crystal sediments were dissolved in 100 μL of DMSO, and the absorbance at 570 nm was measured using the BioTek Synergy 2 Microplate Reader (BioTek, Winooski, Vt.). The assay was conducted in sextuplicate wells and values were normalized to day zero.

[2] = tested on: ELK1-dependent promoter activation by AR; assay: Primary screening assay: luciferase reporter in recombinant HeLa cells (Gal4-TATA-Luc, Gal4-ELK1, AR) treated with testosterone; format: cell-based, human; details: for inhibition of ELK1-dependent promoter activation by AR (in words): testosterone-treated recombinant HeLa cells, luciferase
Description: FIG. 6A is a schematic diagram of the reporter system for the primary screening assay. Recombinant HeLa cells used in this assay harbor the Gal4-TATA-Luc promoter-reporter, and stably express a Gal4-ELK1 fusion protein as well as the androgen receptor (AR). Gal4-ELK1 is bound to the Gal4 elements in the promoter. In the absence of testosterone (small circle), AR is localized in the cytoplasm. When testosterone is present it binds to AR causing AR to translocate to the nucleus where it then binds to Gal4-ELK1 and activates the downstream luciferase reporter.
HeLa HLR cells obtained from Dr. Johann Hofman (Innsbruck Medical University), which were originally designed to serve as a cell-based assay system to measure modulation of MAPK activity. HeLa HLR cells have a stably integrated minimal promoter-luciferase reporter containing five upstream Gal4 elements (Gal4-TATA-Luc) and also constitutively express a Gal4-ELK1 fusion protein in which the Gal4 DNA binding domain is substituted for the ETS DNA binding domain of ELK1. In order to produce recombinant cell lines for high throughput screening and counter screening of small molecule libraries, HeLa HLR were stably transduced with a vector expressing the full-length AR. A sequence encoding the full length AR (SEQ ID NO:9) was subcloned from the pCMV expression vector (Origene) into the pCDH-CMV-MCS-EF1-Puro cDNA Cloning and Expression Vector (System Biosciences) at NheI (upstream) and BamHI (downstream) sites. The lentiviral vector expressing full length AR was then packaged in lentivirus and the HeLa HLR cells were infected as described below in the sub-section “Lentivirus-mediated-Transduction.” After 72 hours (h) of infection, 2 ug/mL of puromycin was added to the culture medium to select for the transduced cells. The cells were plated at low density for colony formation (20-40 colonies) in a 100 mm dish. Clonal cells were isolated using cloning cylinders from CORNING (Cat. #3166-8). The selected clones were further expanded and then tested for luciferase induction by testosterone. The clone that gave the greatest luciferase signal to noise ratio in response to testosterone treatment was then chosen for use in the primary screening assay for high throughput small molecule screening.
For high throughput screening, recombinant primary screening cells were first depleted of hormone by growing them for 24h in medium in which the serum used was heat-inactivated and charcoal-stripped. The cells were then plated in 384-well white flat bottom plates (5,000 cells/well) (Corning Product #3570) using a Multidrop (Thermo Fisher Scientific, Waltham, Mass.). The plates were then incubated for 24h prior to adding test compounds. The following day test compounds from the LOPAC, Prestwick, or Maybridge Hitfinder libraries were added precisely in a 0.2 μL volume in the test wells using a Biomek FX liquid handler (Beckman Coutler, Break, Calif.) to achieve final media concentration of 10 μM of each test compound. Using the Multidrop (ThermoLab Systems, Helsinki, Finland), testosterone was added in addition to the test compounds to achieve a final media concentration of 10 nM. As the test compounds were re-constituted from powder stocks using dimethyl sulfoxide (DMSO) as the solvent, the final media concentration of DMSO was 0.4% v/v. For the assay negative control on each plate, one row of wells on each plate contained 10 nM testosterone and 0.4% v/v of DMSO. For the assay positive control on each plate, one row of wells on each plate contained 10 nM testosterone and 10 uM enzalutamide dissolved in DMSO (0.4% v/v of DMSO in the wells). The plates were incubated for 24h at 37° C. in 5% CO2. The medium was then aspirated leaving a residual volume 10 μl using an Elx 405-plate washer (Bio Tek U.S.). Then, 10 uL of the assay reagent Bright-Glo (Promega Corp., Madison Wis.) was added to each well. […]

[3] = tested on: ARE-dependent promoter activation by AR; assay: Counter screening assay: ARE-luciferase reporter in recombinant HeLa cells expressing AR; format: cell-based, human; details: testosterone-treated recombinant HeLa cells
Description: FIG. 6B is a schematic diagram of the reporter system for the counter screening assay. Recombinant HeLa cells used in this assay are identical to the primary screening cells except for the absence of Gal4-ELK1 and substitution of the Gal4 elements in the promoter with a canonical ARE. In this case, testosterone causes cytosolic AR to translocate to the nucleus and bind to the ARE in the promoter resulting in activation of the luciferase reporter.
The cells generated for counter screening, are HeLa cells stably transduced with a lentiviral plasmid construct containing a minimal promoter-luciferase reporter and an upstream androgen response element (ARE) sequence. These HeLa cells were also transduced with a lentiviral expression plasmid encoding the full-length AR. These lentiviral constructs were made as follows. Custom synthesized PCR primers were used to amplify and clone the ARE sequence from a pG5luc plasmid construct containing an ARE sequence element into the pGreenFire1 ™-mCMV-EF1-Neo (Plasmid) at SpeI (upstream) and BamHI (downstream) sites. pG5luc Vector is well known and the complete sequence has NCBI accession #AF264724. The ARE containing pG5luc plasmid is described in detail in Patki et al., 2013, J Biol Chem, 288:11047-11065. The lentiviral vector expressing ARE-luciferase reporter was then packaged in lentivirus and parental HeLa cells were infected as described below under the heading “Lentivirus-mediated-Transduction.” After 72h of infection, 400 ug/mL of Geneticin was added to the culture medium to select for the transduced cells. These cells were then infected with the lentivirus containing the full length AR expression plasmid described above. After 72h of infection, 2 ug/mL of Puromycin was added to the culture medium to select for the transduced cells. Clonal cells harboring both the ARE-promoter-luciferase reporter and also stably expressing AR were then isolated using cloning cylinders as described above. The selected clones were further expanded and then tested for luciferase induction by testosterone. The clone that gave the greatest luciferase signal to noise ratio in response to testosterone treatment was then chosen for use in the counter screening assay for high throughput small molecule screening. All of the plasmid constructs generated above were sequenced to verify DNA sequences before, the constructs were used.
For high throughput screening, recombinant primary screening cells were first depleted of hormone by growing them for 24h in medium in which the serum used was heat-inactivated and charcoal-stripped. The cells were then plated in 384-well white flat bottom plates (5,000 cells/well) (Corning Product #3570) using a Multidrop (Thermo Fisher Scientific, Waltham, Mass.). […]

AR negative cell lines = assay: Toxicity to AR negative cell lines; details: at low doses, concentration range of 1 uM-10 uM
[4] = HLM 0.05 mg/ml, 30 minutes, 37° C.

mean compound concentration, Control (absence of NADPH) [1, 4]: 1774 nM
mean compound concentration, NADPH treated [1, 4]: 1549 nM
percentage metabolized (%) ([1]; HLM 0.05 mg/ml, NADPH, 30 minutes, 37° C.): 12.7%
reduction of metabolism in human liver microsomes relative to 5,3′-dihydroxyflavone ([1]; methyl group substitution on the 4′ carbon): 50%
SMILES: Cc1ccc(-c2cc(=O)c3c(O)cccc3o2)cc1O [4′-methyl-5,3′-dihydroxyflavone, 5,3′-dihydroxy-4′-methylflavone]
compound concentration after HLM incubation, Control (absence of NADPH), replicate [1, 4]: 1789 nM and 1770 nM and 1757 nM and 1773 nM and 1776 nM and 1782 nM
compound concentration after HLM incubation, NADPH treated, replicate [1, 4]: 1491 nM and 1513 nM and 1639 nM and 1651 nM and 1498 nM and 1501 nM
growth inhibition of 22Rv1 cells (22Rv1 cells): retained its ability to inhibit growth

SMILES: COc1c(-c2ccc(O)c(O)c2)oc2cc(O)cc(O)c2c1=O [5,7,3′,4′-tetrahydroxy-3-methoxyflavone]
inhibition of ELK1-dependent promoter activation by AR (in words) [2]: lack of inhibition

SMILES: O=c1cc(-c2cc(O)cc(F)c2)oc2cc(F)cc(O)c12 [5′,7-diflouro-5,3′-dihydroxyflavone]
inhibition of ARE-dependent promoter activation by AR (in words) [3]: inhibited
inhibition of ELK1-dependent promoter activation by AR (in words) [2]: inhibited
toxicity to AR negative cell lines (AR negative cell lines): toxic

SMILES: O=c1cc(-c2cccc(O)c2)oc2cc(F)cc(O)c12 [7-Fluoro-5,3′-dihydroxyflavone]
inhibition of ARE-dependent promoter activation by AR (in words) [3]: inhibited
inhibition of ELK1-dependent promoter activation by AR (in words) [2]: inhibited

SMILES: O=c1cc(-c2ccc(O)c(O)c2)oc2cc(O)cc(O)c12 [Hit1, 5,7,3′,4′-tetrahydroxyflavone]
inhibition of ARE-dependent promoter activation by AR (in words) [3]: virtual absence of an effect
inhibition at 10 µM ([2]; Homo sapiens, HeLa, compound concentration of 10 μM, read-out: inhibition in the primary screen): 80 to 100%
